Source: paper PMC10060354, “Discovery of a small molecule ligand of FRS2 that inhibits invasion and tumor growth” (Cellular Oncology, 2022)
Values joined by “and” are separate entries in the source; they are usually repeats but may differ in a detail not shown here. Identical values can stand only once. Like-named read-outs stand apart in the source and are kept apart here.

Legend:
[1] = Solubility at the concentration required for the biophysical assays; type: physicochemical; settings: 5% DMSO
GB1-FRS2_PTB:FGFR_PEP = biological target: T1, GB1-FRS2_PTB:FGFR_PEP (Homo sapiens, UniProt Q8WU20); assay: nanoDSF competition assay with the FGFR peptide; type: binding; settings: PTB domain:FGFR peptide 1:5; 500 μM compound
T1 construct: FRS2-PTB 11-140aa; 6xHis (N); made in house; host or cells: E. coli BL21 (DE3) for the protein
T1 sequence (Q8WU20 11-140): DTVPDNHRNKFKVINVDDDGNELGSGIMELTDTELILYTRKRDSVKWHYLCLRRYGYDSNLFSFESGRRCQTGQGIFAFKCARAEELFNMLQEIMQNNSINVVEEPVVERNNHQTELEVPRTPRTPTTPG
Procedure: (§1) Purified FRS2_PTB or GB1_FRS2_PTB protein tagged with 6 × Histidine residues and the B1 immunoglobulin binding domain of the streptococcal protein G (GB1) were diluted in the protein buffer (100 mM sodium phosphate, 50 mM NaCl, 0.5 mM EDTA, 50 mM arginine, 1 mM TCEP, pH 7.0) to 30 μM, GB-1 to 40 μM. FGFR_PEP, compounds or paracetamol (PARA) as negative control were dissolved at 1 mM in the protein buffer supplemented with 10% DMSO. Compound and protein were mixed at 1:1 volume ratio yielding a final concentration of 15 μM and 20 μM for FRS2_PTB/GB1_FRS2_PTB and GB1, respectively, as well as 500 μM for FGFR_PEP or compounds. The mixture was incubated for 15 min. Each compound was measured in triplicates. Protein controls were measured in six replicates in the beginning. The quality of the screen was assessed by the Z-factor. nanoDSF validation studies were performed on a Prometheus® system in high sensitivity capillaries. Samples were heated with 1 °C/min from 20 to 95 °C. Each compound was measured in triplicates. GB1-FRS2_PTB and GB1 were diluted in the protein buffer (100 mM sodium phosphate, 50 mM NaCl, 0.5 mM EDTA, 50 mM arginine, 1 mM TCEP, pH 7.0) to 30 μM. Compounds 3.3, 3.4, 3.18 as well as the 3.18 analogues were dissolved in 100% DMSO at 50 or 100 mM and further diluted to 1 mM with a final […]. FGFR_PEP was dissolved at 1 mM in the protein buffer supplemented with 10% DMSO. Compound and protein were mixed at 1:1 volume ratio yielding final concentrations of 15 μM protein and 500 μM for the compounds. FGFR_PEP was measured against both GB1-FRS2_PTB and GB1, all other compounds only against GB1-FRS2_PTB. The mixture was incubated for 15 min before measurement. The data was analyzed for both the ratio of signals at 330 and 350 nm and at 350 nm alone. For the competition assays, the PTB domain and the FGFR peptide were mixed at a 1:5 ratio, and ligand competition was assayed in the presence of 500 μM compound.

DAOY cells [2] = assay: SIA, EGF-induced cell invasion; type: cell-based, human; settings: 10 µM
Procedure: (§2) 1000—2500 cells/well in 100 μl were seeded in 96 well Corning® Spheroid microplate (CLS4520, Sigma-Aldrich) or in cell-repellent 96 well microplate (650,790, Greiner Bio-one). SIA and analysis was performed as described before. In brief: After spheroid formation (24 – 72 h after seeding), 70 µl medium was removed and replaced with the collagen mixture (2.5 mg/ml Pure Col Collagen I (Advanced Biomatrix)), DMEM 1x (from 10 × stock, Sigma, D2429) and 0.4% Sodium bicarbonate (Sigma, S8761)), resulting in a final collagen concentration of 1.75 mg/ml. Embedded spheroids were stimulated with bFGF (100 ng/ml if not otherwise stated), HGF (30 ng /ml) or EGF (20 ng/ml) and distance of invaded cells quantified 24 – 48 h after embedding. Compounds and BGJ398 were added in Dimethylsulfoxid (DMSO) and corresponding DMSO concentrations were used in control samples.

DAOY cells [3] = assay: Spheroid invasion assay (SIA), bFGF-induced collagen I invasion; type: cell-based, human; settings: DAOY cells, n = 3 technical replicas, read-out: EC50 for the inhibition of bFGF-induced collagen I invasion
Procedure: as §2

FRS2_PTB = biological target: T2, FRS2_PTB (Homo sapiens, UniProt Q8WU20); assay: nano differential scanning fluorimetry (nanoDSF); type: binding; settings: 500 μM ligand
T2 construct: FRS2-PTB 11-140aa; 6xHis; made in house; host or cells: E. coli BL21 (DE3)
T2 sequence (Q8WU20 11-140): T1 sequence (Q8WU20 11-140)
Procedure: Assay establishment and pilot nanoDSF experiments were performed with a Tycho® system. Each experiment was performed by mixing the protein and ligand of interest at a 1:1 ratio and subsequent incubation for 15–30 min at room temperature. Controls of protein alone and ligand alone in identical buffer compositions as for the complex were measured accordingly. The temperature gradient ranged from 35 to 95 °C, and the heating rate was 30 °C/min. Inflection temperatures TI were calculated from the first derivative of the spectra obtained at the ratio of the signals at 350 nm to those at 330 nm. ΔTI of a complex was calculated as following: ΔTI,complex = TI,complex – TI,protein.
The in-built software version 1.1.5.668 (NanoTemper Technologies, Munich, Germany) and Microsoft Office Excel 365 (Microsoft Corp., Seattle, USA) was used for data analysis. Data was plotted with GraphPad Prism vers. 8.3.0 (GraphPad Software, San Diego, USA).
as §1, with “For the competition assays, the PTB domain and the FGFR peptide were mixed at a 1:5 ratio, and ligand competition was assayed in the presence of 500 μM compound.” left out

GB1-FRS2-PTB = biological target: T3, GB1-FRS2-PTB (Homo sapiens, UniProt Q8WU20); assay: Microscale thermophoresis (MST); type: binding
T3 construct: FRS2-PTB 11-140aa; 6xHis (N); made in house; host or cells: E. coli BL21 (DE3)
T3 sequence (Q8WU20 11-140): T1 sequence (Q8WU20 11-140)
Procedure: Protein labeling for MST was performed with the 2nd Generation BLUE-NHS dye. GB1-FRS2_PTB- was labelled at 20 μM with 60 μM dye and incubated for 30 min in the dark at room temperature. The labelling was performed in the protein buffer without arginine supplementation. It was rebuffered to protein buffer (100 mM sodium phosphate, 50 mM NaCl, 0.5 mM EDTA, 50 mM arginine, 1 mM TCEP, pH 7.0). The dye was subsequently removed by gravitational flow chromatography and the protein concentration determined by UV-spectroscopy. The assay was established with the FGFR_PEP. […] A total volume of 10 μl of 50 nM labelled protein was added to 10 μl of the peptide dilution series for a final labelled protein concentration of 25 nM. The samples were incubated for 15 min at RT. […] Temperature was set to 25 °C. Each measurement was repeated twice. The interaction was measured in duplicates for the non-DMSO-supplemented buffer and in triplicates for DMSO-supplemented buffer. […] The samples were incubated for 15 min, and MST assessed as described above. Each measurement was repeated twice. The interaction was measured in two independent duplicates. […] The mixture was then measured for their initial fluorescence once. MST-experiments were performed with MO.Control vers. 1.6 (NanoTemper Technologies, Munich, Germany) and data analyzed with MO.Analysis vers. 2.3 (NanoTemper Technologies, Munich, Germany). Data was plotted with GraphPad Prism vers. 8.3.0 (GraphPad Software, San Diego, USA).

## O=[N+]([O-])c1c(Cl)cc(O)c2c1C1C=CCC1C(c1ccc(Br)cc1)N2 (stereo not drawn) [Compound 2]
[1]
  solubility for biophysical assays (result in words): soluble in 5% DMSO
GB1-FRS2_PTB:FGFR_PEP
  nanoDSF competition with FGFR peptide (result in words): negative shift in compound-mixed samples

## O=[N+]([O-])c1c(Cl)cc(O)c2c1C1C=CCC1C(c1ccccc1)N2 (stereo not drawn) [Compound 9]
[1]
  solubility for biophysical assays (result in words): soluble in 5% DMSO
GB1-FRS2_PTB:FGFR_PEP
  nanoDSF competition with FGFR peptide (result in words): negative shift in compound-mixed samples
DAOY cells [2]
  effect on EGF-induced cell invasion (result in words): only moderately reduced

## O=[N+]([O-])c1c(Cl)cc(O)c2c1C1C=CCC1C(C1CC=CCC1)N2 (stereo not drawn) [Compound 3.18]
DAOY cells [3]
  EC50: 1.29 µM
DAOY cells [3]; Homo sapiens, Daoy
  EC50: 1.29 µM
FRS2_PTB
  nanoDSF shift of the inflection point of the melting curve (ΔTm): < -2 °C
GB1-FRS2_PTB:FGFR_PEP
  nanoDSF competition with FGFR peptide (result in words): negative shift in compound-mixed samples
GB1-FRS2-PTB; GB1-FRS2_PTB, read-out: KD, initial fluorescence change analysis
  Kd: 110 µM and 140 µM and 110 to 140 µM
GB1-FRS2-PTB; signal:noise ratio > 5 counts as binding
  binding by MST trace analysis (result in words): no binding was detected
DAOY cells [2]
  effect on EGF-induced cell invasion (result in words): only moderately reduced
